From patent US5795615A, “Process for producing metal carboxylates for use as animal feed supplements” (priority 1995, dated 1998)

Legend:
[1] = Comparative zinc bioavailability: growth parameters and zinc levels in blood and tibia ash of broilers; settings: for Relative Biological Availability (%): Ending body weight (lbs) 21 days / Relative Biological Availability (%): Body weight gain (lbs) 21 days: broilers fed 21 days; for Relative Biological Availability (%): Ending body weight (lbs) 21 days: relative to zinc sulfate arbitrarily set at 100%, superscripts: means in a row without common superscript differ (P < 0.05, LSD)
Protocol: Each zinc treatment was replicated eight times and each pen contained ten male birds.
Basal feeds and zinc compound were mixed in a horizontal feed mixer providing the desired ingredient composition as shown in Table 4. The broilers were fed the rations for 21 days. Feed weights were taken during the trial. Body weights were measured at the beginning and at the end of the trial. On day 21, zinc levels in the blood and tibia ash were determined. The assay procedures for total tibia zinc content or concentration to assess zinc utilization are similar to those used by Wedekind et al., J. Anim. Sci., 70:178-187 (1992). The data were analyzed according to the SAS statistical package.
Chick growth parameters and zinc levels in the blood and tibia ash were used as criteria to determine the biological availability of zinc. […] The biological availability of zinc sulfate was arbitrarily set at 100%.

[2] = cited from earlier work
[3] = relative to zinc sulfate set at 100%, superscripts: P < 0.05, LSD
[4] = broilers, relative to zinc sulfate set at 100%, superscripts: P < 0.05, LSD
[5] = broilers, day 21, relative to zinc sulfate set at 100%, superscripts: P < 0.05, LSD

| Compound | Relative Biological Availability (%): Ending body weight (lbs) 21 days [1] [%] | Relative Biological Availability (%): Body weight gain (lbs) 21 days [1, 3] [%] | Relative Biological Availability (%): Feed conversion (corr.) 3-21 days [1, 4] [%] | Relative Biological Availability (%): Bone ash (%) 21 days [1, 5] [%] | Relative Biological Availability (%): Plasma Zinc (μg/ml) ([1]; chicken, in vivo, 30240 min) [%] | Relative Biological Availability (%): Tibia ash zinc (μg/g) ([1]; chicken, in vivo, 30240 min) [%] | solubility in water [2] [g/100 ml] | ending body weights compared with zinc sulfate ([1]; both the 10 mg/kg and 20 mg/kg levels) | Relative Biological Availability (%): Plasma Zinc (μg/ml) ([1]; broilers, day 21, plasma, relative to zinc sulfate set at 100%, superscripts: P < 0.05, LSD) [%] | Relative Biological Availability (%): Tibia ash zinc (μg/g) ([1]; broilers, day 21, tibia ash, relative to zinc sulfate set at 100%, superscripts: P < 0.05, LSD) [%] | levels of zinc in the blood and tibia ash on day 21 ([1]; day 21, zinc propionate versus zinc methionine) |
| --- | --- | --- | --- | --- | --- | --- | --- | --- | --- | --- | --- |
| O=S(=O)([O-])[O-].[Zn+2] [Sulfate, zinc sulfate, reference compound] | 100.00 | 100.00 | 100.00 | 100.00 | 100.00 | 100.00 | – | – | – | – | – |
| [O]=[Zn] [Zinc oxide, zinc oxide] | – | – | – | – | – | – | 0.00016 | – | – | – | – |
| CSCC[C@H](N)C(=O)O.O=S(=O)([O-])O.O=S(=O)([O-])O.[Zn+2] [Zinpro ®, Zinc methionine bisulfate] | 132.46 | 131.52 | 90.38 | 113.95 | – | – | – | statistically significant higher ending body weights | 124.00 | 123.99 | comparable levels of zinc |
